According to patent publication US8575188B2 (priority 2009, dated 2013):
Where two headings read alike, the source gives them in different places.

How the values were obtained:
[1] = test system: bone marrow progenitor cells; assay: Bone marrow progenitor cell clonogenic assay (CFU-GM), mouse; details: for IC50: read-out: Mouse CFU-GM (IC50 nM) THLD
Procedure: (§1) A clonogenic assay was performed using bone marrow progenitor cells derived from the blood of mice and humans.

[2] = test system: bone marrow progenitor cells; assay: Bone marrow progenitor cell clonogenic assay (CFU-GM), human; details: for IC50: read-out: Human CFU-GM (IC50 nM) THLD
Procedure: as §1

[3] = test system: human non small cell lung cancer cell line H460; assay: Antiproliferation (cytotoxicity) assay, 72 hrs under air, Alamar Blue; type: cell-based; details: read-out: IC50
[4] = test system: human colon cancer cell line HT-29; assay: Antiproliferation assay, 72 hrs under air, Alamar Blue; type: cell-based; details: read-out: HT29 IC50
[5] = test system: human prostate cancer cell line LNCap; assay: as above; type: cell-based
[6] = test system: human melanoma cell line A375; assay: as above; type: cell-based
[7] = test system: human melanoma cell line SKMEL-28; assay: as above; type: cell-based
[8] = test system: human prostate cancer cell line DU145; assay: as above; type: cell-based
[9] = test system: BCRP, which over expressed the breast cancer resistance protein; assay: Efflux pump drug resistance, antiproliferation assay, BCRP over expressing line; details: for 3d BCRP/pcDNA: 3 days
Procedure: (§2) The compounds were screened for cytotoxicity using human non small cell lung cancer cell line H460. […]
(§3) Cellular drug resistance was determined using the antiproliferation assay described above.

[10] = test system: human melanoma cell line MAMLE-3M; assay: Antiproliferation assay, 72 hrs under air, Alamar Blue; type: cell-based
[11] = test system: human melanoma cell line SKMEL2; assay: as above; type: cell-based; details: read-out: SKMEL-2 IC50
[12] = test system: human prostate cancer cell line PC-3; assay: as above; type: cell-based; details: read-out: PC3 IC50
[13] = test system: human ovarian cancer cell line IGROV-1; assay: as above; type: cell-based
[14] = test system: DX5, which over expresses the MDR 1 efflux pump; assay: Efflux pump drug resistance, antiproliferation assay, MDR 1 over expressing line; type: cell-based; details: air
Procedure: as §2, §3

[15] = test system: H69 small cell lung cancer line; assay: Efflux pump drug resistance, antiproliferation assay, parent line; type: cell-based; details: air
Procedure: as §2, §3

pcDNA = assay: as above; type: cell-based; details: air
Procedure: as §2, §3

[16] = test system: MRP1 over expressing H69AR line; assay: Efflux pump drug resistance, antiproliferation assay, MRP1 over expressing line; type: cell-based; details: Homo sapiens, air
Procedure: as §2, §3

[17] = test system: Messa ovarian carcinoma cell line; assay: Efflux pump drug resistance, antiproliferation assay, parent line; type: cell-based; details: Homo sapiens, MES-SA, air
Procedure: […] Cells were treated with test compounds at various concentrations under air for 72 hrs, and then cell viability and proliferation were assessed by Alamar Blue staining.
as §3

[18] = Bone marrow progenitor cell clonogenic assay (CFU-GM), mouse; details: mouse
Procedure: as §1

[19] = Bone marrow progenitor cell clonogenic assay (CFU-GM), human; details: human
Procedure: as §1

[20] = In vivo pharmacokinetics, oral gavage; details: CD, mouse, in vivo, po; for AUC / Cmax: 50 mg/kg
Procedure: The data normalized to a 50 mg/kg dose are shown below (compounds were dosed at either 25 or 50 mg/kg).

human colon cancer HT-29 = assay: Xenograft model, subcutaneous, tumor growth inhibition and body weight loss; details: for TGI (%): HT29, PO, QD × 5/wk, 2 weeks; for Max. BWL (%): mouse, in vivo, po
Procedure: (§4) The first three models were produced by subcutaneous implantation of the appropriate number of cells into the flank of the animals. When tumor size was approximately 150 mm^3, animals were randomized into groups of 10 mice each for dosing. One arm was dosed with only vehicle and the results used for the efficacy calculations. […] TGI=(1−T/C) %. T/C ratio was calculated as T/C=(Tn−Ti)/(Cn−Ci), where Tn is tumor volume in treatment group on Day n, and Ti is the initial tumor volume in the treatment group. Cn is the tumor volume of the vehicle group on the last day of measurement. Ci is the initial tumor volume in the vehicle control group. Day n is the last measurement taken when all the animals in the vehicle group were not yet euthanized. Animals were euthanized when tumor volumes grew larger than 2000 mm^3.

[21] = test system: human prostate cancer PC-3; assay: as above; details: for TGI (%): PC3, PO, QD × 5/wk, 2 weeks, 40 mg/Kg; for Max. BWL (%): mouse, in vivo, po, 40 mg/kg
Procedure: as §4

[22] = test system: human non small cell lung cancer H-460; assay: as above; details: for TGI (%): H460, PO, QD × 5/wk, 2 weeks; for Max. BWL (%): mouse, in vivo, po
Procedure: as §4

[23] = Homo sapiens, NCI-H460, H460, inhibition of proliferation, 72 hrs under air
[24] = MDR1, 120 h, 5 days, read-out: Air 5d DX5 prol. IC50
[25] = 120 h, 5 days, read-out: Air 5d H69 prol. IC50
[26] = 120 h, 5 days, read-out: Air 5d H69ar (MRP1) prol. IC50
[27] = 120 h, 5 days, read-out: Air 5d MESSA prol. IC50
[28] = MDR1, 72 h, 3 days, read-out: Air 3d DX5 prol. IC50
[29] = 72 h, 3 days, read-out: Air 3d pcDNA prol. IC50
[30] = 72 h, read-out: Air 3d BCRP prol. IC50 nM, air, 3 days
[31] = ratio of IC50s, BCRP over expressing versus parent line
[32] = 72 h, 3 days, read-out: Air 3d MESSA prol. IC50
[33] = 72 h, 3 days, read-out: Air 3d H69 prol. IC50
[34] = 72 h, 3 days, read-out: Air 3d H69ar (MRP1) prol. IC50

SMILES	IC50 [3, 23] [nM]	IC50 [14, 28] [nM]	IC50 (pcDNA; [29]) [nM]	IC50 [9, 30] [nM]	3d BCRP/pcDNA [9, 31]	IC50 [17, 32] [nM]	IC90 [18] [nM]	IC50 ([1]; Mus musculus, CFU-GM) [nM]	IC50 [15, 33] [nM]	IC90 [19] [nM]	IC50 ([2]; Homo sapiens, CFU-GM) [nM]	IC50 [16, 34] [nM]	half-life [20] [min]	AUC [20] [ng·h/mL]	Cmax [20] [ng/mL]	also measured
CC[C@@]1(O)C(=O)OCc2c1cc1n(c2=O)Cc2cc3c(N)cccc3nc2-1 [9-amino camptothecin, reference compound]																IC50 ([1]; mouse bone marrow progenitor cells, clonogenic assay): 90 nM; IC90 ([1]; read-out: Mouse CFU-GM (IC90 nM) THLD, IC90, mouse bone marrow progenitor cells, clonogenic assay): 700 nM; IC50 ([2]; human bone marrow progenitor cells, clonogenic assay): 1.2 nM; IC90 ([2]; read-out: Human CFU-GM (IC90 nM) THLD, IC90, human bone marrow progenitor cells, clonogenic assay): 8 nM
CCc1c2c(nc3ccc(O)cc13)-c1cc3c(c(=O)n1C2)COC(=O)[C@]3(O)CC [SN-38, reference compound]																IC50 [3]: 54 nM; IC50 [4]: 224 nM; IC50 [1]: 110 nM; IC50 [2]: 1.3 nM; IC50 [5]: 9 nM; IC50 [6]: 4 nM; IC50 [7]: 10000 nM; IC50 [8]: 4 nM; ratio BCRP over expressing line versus the parent cell line ([9]; not told): > 220; IC50 [10]: 200 nM; IC50 [11]: 100 nM; IC50 [12]: 4 nM; IC50 [13]: 30 nM
CC[C@@]1(O)C(=O)OCc2c1c([N+](=O)[O-])c1n(c2=O)Cc2cc3ccccc3nc2-1 [TH1317]	> 1000															IC50 [14, 24]: > 500 nM; IC50 [15, 25]: 933 nM; IC50 (pcDNA; 120 h, 5 days, read-out: Air 5d pcDNA prol. IC50): 57 nM; IC50 ([9]; 120 h, read-out: Air 5d BCRP prol. IC50 nM, air, 5 days): 82 nM; 5d BCRP/pcDNA ([9]; ratio of IC50s, BCRP over expressing versus parent line, 5 days): 1.4386; IC50 [16, 26]: 1320 nM; IC50 [17, 27]: > 500 nM
CC[C@@]1(O)C(=O)OCc2c1c([N+](=O)[O-])c1n(c2=O)Cc2c-1nc1ccccc1c2CO [TH1333]	> 1000	34000	3900	7800	2	15000										
CC[C@@]1(O)C(=O)OCc2c1c(N)c1n(c2=O)Cc2cc3c(N)cccc3nc2-1 [TH1386]	71	28	5.6	26.6	4.75	52	3500	680	141	210	30	195	25.6	3100	5860	
CCc1c2c(nc3ccccc13)-c1c(NC=O)c3c(c(=O)n1C2)COC(=O)[C@]3(O)CC [TH1408]	66	40	9.5	7.3	0.7684	81	5000	700	242	650	90	285	48.3	8430	6070	
CC[C@@]1(O)C(=O)OCc2c1c([N+](=O)[O-])c1n(c2=O)Cc2c-1nc1ccccc1c2C [TH1446]	850		574	2740	4.777								35.4	4280	5100	TGI (%) (human colon cancer HT-29; 40 mg/Kg): 29.5%; Max. BWL (%) (human colon cancer HT-29; 40 mg/kg): 1.1%; IC50 [14, 24]: 4960 nM; IC50 [15, 25]: 2740 nM; IC50 [16, 26]: 8510 nM; IC50 [17, 27]: 4450 nM
CC[C@@]1(O)C(=O)OCc2c1c(N)c1n(c2=O)Cc2c-1nc1ccccc1c2/C=N/OC(C)(C)C [TH1499]	19	5	3.2	3.4	1.0625	9			217			463				TGI (%) (human colon cancer HT-29; 25 mg/Kg): 4.7%; Max. BWL (%) (human colon cancer HT-29; 25 mg/kg): 1.8%
CC[C@@]1(O)C(=O)OCc2c1c(NC=O)c1n(c2=O)Cc2cc3ccccc3nc2-1 [TH1589]	59						6200	920		680	110					TGI (%) [21]: 80%; Max. BWL (%) [21]: 0.1%; TGI (%) ([22]; 30 mg/Kg): 76%; Max. BWL (%) ([22]; 30 mg/kg): 10.4%
CCCc1c2c(nc3ccccc13)-c1c(N)c3c(c(=O)n1C2)COC(=O)[C@]3(O)CC [TH1651]	6.2															TGI (%) [21]: 80%; Max. BWL (%) [21]: 4.8%; TGI (%) ([22]; 40 mg/Kg): 80%; Max. BWL (%) ([22]; 40 mg/kg): 5.5%
